Measured values: patent US5773236A, “Assay for glutathiane transferase using polyhaloaryl-substituted reporter molecules” (Molecule Probes, Inc., priority 1997, dated 1998)

Experiments:
[1] = system: NIH-3T3 cells (lacZ negative); experiment: β-galactosidase activity detection in cells by microscopy, lacZ negative (Example 61); format: cell-based; settings: 50 nM, 37° C., 35 minutes
Description: (§1) NIH-3T3 cells (lacZ negative) and CRE BAG 2 cells (lacZ positive) are obtained from American Type Culture Collection Co., Rockville, Md. They are grown in a humidified atmosphere of 5% CO2 in D-MEM supplemented with 10% bovine calf serum, 50 μg/mL gentamycin, 300 μg/mL L-glutamine and 10 mM HEPES, pH 7.4. A 50 μM stock solution of Compound 9 is prepared in water: dimethylformamide (DMF) (1:1). NIH-3T3 and CRE BAG 2 cells are trypsinized, washed and suspended in D-MEM containing 10% BCS. 10 μL of the cell suspension is added to 0.989 mL of the same medium. 1 μL of the 50 μM substrate solution is added to the cells to obtain a final concentration of 50 nM. Incubation is carried out at 37° C. for 35 minutes. Cells are centrifuged to form a pellet, supernatant is discarded and cells are resuspended in D-MEM with 10% BCS. Cells are mounted on slides and observed by fluorescence microscopy.

[2] = system: β-galactosidase; experiment: Glycosidase analysis in vitro (Example 60); format: biochemical; settings: substrate 333 μM, room temperature, 20 minutes
Description: The stock reagents required are: 1) Compound 9 (Example 7) 5 mM in ethanol; 2) Reaction buffer: 0.3M potassium phosphate, 3 mM MgCl2 pH 7.5; 3) β-galactosidase (Boehringer-Mannheim), dissolved at 10 mg/mL in 0.05M potassium phosphate, pH 7; 4) Enzyme diluent: 0.01M Tris HCl, 0.01M MgCl2, 0.01M NaCl, 0.01M β-mercaptoethanol, pH 7.5. 130 μL of the reaction buffer is added to a series of rows and columns in a microplate. To each of the wells with reaction buffer is added 10 μL of the substrate solution. The enzyme stock solution is diluted to 1 mg/mL, 0.1 mg/mL, 10 μg/mL, 1 μg/mL, 0.1 μg/mL and 0 μg/mL. To the wells containing reaction buffer and substrate, 10 μL of each of the different concentration enzyme solutions is added. The wells containing 0 μg/mL enzyme serve as controls. The plate is allowed to incubate at room temperature for 20 minutes. Fluorescence of each well is determined using a 485 nm excitation filter, a 530 nm emission filter and gain setting of 40. Using the above conditions, as little as 6.7 ng/mL enzyme can be detected using the substrate at 333 μM concentration. The fluorescence response is linear until the enzyme concentration reaches ~6.7 μg/mL.

[3] = system: CRE BAG 2 cells (lacZ positive); experiment: β-galactosidase / lacZ detection in cells by microscopy, lacZ positive (Example 61); format: cell-based; settings: 50 nM, 37° C., 35 minutes
Description: as §1

[4] = system: β-D-galactosidase; experiment: Detection of β-D-galactosidase on a membrane blot (Example 64); format: biochemical; settings: nitrocellulose, room temperature, 1 hour plus 30 minutes
Description: The reagents used are: 1) Compound 9, 5 mM in ethanol; 2) β-D-galactosidase, 10 mg/mL in 0.05M potassium phosphate, pH 7; 3) Enzyme diluent: 0.01M Tris, 0.01M MgCl2, 0.01M mercaptoethanol, 0.01M NaCl, 1% BSA, pH 7.5; 4) 1% BSA in PBS, pH 7.2; 5) Reaction buffer: 0.3M potassium phosphate, 3 mM MgCl2, pH 7.5; 6) Wash buffer: 20 mM Tris, 137 mM NaCl, 0.5% Tween 20, pH 7.5. A stock solution of β-galactosidase is diluted in enzyme diluent to obtain solutions with the following concentrations: 1 μg/μL, 0.1 μg/μL, 0.01 μg/μL, 1 ng/μL, 0.1 ng/μL and 0 ng/μL. 1 μL of each diluted solution is spotted on a two nitrocellulose membranes (1"×1"), pore size 0.45 μM, and dried immediately by blowing argon on the membranes. One of the membranes is blocked by treatment with 1% BSA in PBS for 20 minutes at room temperature. The following mixture is prepared: 4.95 mL of reaction buffer+[…] of Compound 9 stock solution. 2 mL of this solution is added to each of the blots and incubation is carried out at room temperature for 1 hour. The blots are washed once with 2 mL of wash buffer. 0.5 mL of the mixture described above is once again added to the blots and incubation is carried out at room temperature for 30 minutes. The blots are allowed to dry and an image is obtained by illuminating with reflected UV light at 254 nm. […]

In the case of `O=C1OC2(c3ccc(O[C@@H]4O[C@H](CO)[C@H](O)[C@H](O)[C@H]4O)cc3Oc3cc(O[C@@H]4O[C@H](CO)[C@H](O)[C@H](O)[C@H]4O)ccc32)c2ccc(NC(=O)c3c(F)c(F)c(F)c(F)c3F)cc21` [Compound 9, 5-(pentafluorobenzoylamino)fluorescein di-β-D-galactopyranoside], the “staining of cells, fluorescence microscopy” value [1] is reported as “green fluorescent lysosomes with very little cytoplasmic background”, the “enzyme concentration up to which fluorescence response is linear” value [2] is reported as ~ 6.7 μg/mL and the “lowest enzyme concentration detected” value [2] is reported as 6.7 ng/mL. The “staining of cells, fluorescence microscopy” value [3] was “green fluorescent lysosomes with well-stained green fluorescent cytoplasm” and the “amount of enzyme detected” value [4] was ~ 100 ng.
